{"source": "ChEMBL document CHEMBL1134146", "about": "“Development of specific CXCR4 inhibitors possessing high selectivity indexes as well as complete stability in serum based on an anti-HIV peptide T140” (Bioorg Med Chem Lett, 2001)", "key": {"MT4 [1]": {"system": "MT4", "assay": "Cytotoxic concentration of compound required to reduce the viability of mock infected MT-4 cells on the MTT assay in test I", "assay_type": "functional", "settings": "Homo sapiens"}, "[2]": {"assay": "Selectivity index determined for CC50 (test I) to EC50 x 10e3", "assay_type": "functional"}, "[3]": {"system": "Human immunodeficiency virus 1", "assay": "Effective concentration for 50% protection of HIV-induced cytopathogenicity in MT-4 cells on the MTT assay (ZIDOVUDINE control)", "assay_type": "functional, organism-based", "settings": "Human immunodeficiency virus 1, MT4"}, "[4]": {"assay": "Selectivity index determined for CC50 (test I) / EC50 x 10e3", "assay_type": "functional"}, "[5]": {"assay": "Selectivity index determined for CC50 (test II) / EC50 x 10e3", "assay_type": "functional"}, "[6]": {"assay": "Selectivity index determined for CC50 (test II) to EC50 x 10e3", "assay_type": "functional"}, "MT4 [7]": {"system": "MT4", "assay": "Cytotoxic concentration of compound required to reduce the viability of mock infected MT-4 cells on the MTT assay by testI", "assay_type": "functional", "settings": "Homo sapiens"}, "PBMC (Homo sapiens)": {"system": "PBMC (Homo sapiens)", "assay": "Cytotoxic concentration of compound determined by the […] exclusion staining method in PBMC by test II"}}}
{"compound": "Cc1cn([C@H]2C[C@H](N=[N+]=[N-])[C@@H](CO)O2)c(=O)[nH]c1=O", "note": "[ZIDOVUDINE]", "values": [{"measurement": "CC50", "setting": "MT4 [1]", "result": 12, "unit": "µM"}, {"measurement": "SI", "setting": "[2]", "result": 1.5}, {"measurement": "EC50", "setting": "[3]", "result": 0.0079, "unit": "µM"}]}
{"compound": "NCCCC[C@@H]1NC(=O)[C@@H](CCCCN)NC(=O)[C@H](CCCN=C(N)N)NC(=O)[C@@H](Cc2ccc(O)cc2)NC(=O)[C@H](NC(=O)[C@@H](NC(=O)[C@H](CCCN=C(N)N)NC(=O)[C@@H](N)CCCN=C(N)N)c2ccc3ccccc3c2)CSSC[C@H](C(=O)N[C@@H](CCCN=C(N)N)C(=O)O)NC(=O)[C@H](CCCNC(N)=O)NC(=O)[C@H](CCCN=C(N)N)NC(=O)[C@H](Cc2ccc(O)cc2)NC(=O)[C@H]2CCCN2C1=O", "values": [{"measurement": "SI", "setting": "[4]", "result": "> 0.3"}, {"measurement": "SI", "setting": "[5]", "result": 18}]}
{"compound": "NCCCC[C@H]1NC(=O)[C@H](CCCN=C(N)N)NC(=O)[C@@H](Cc2ccc(O)cc2)NC(=O)[C@H](NC(=O)[C@@H](NC(=O)[C@H](CCCN=C(N)N)NC(=O)[C@@H](N)CCCN=C(N)N)c2ccc3ccccc3c2)CSSC[C@H](C(=O)N[C@@H](CCCN=C(N)N)C(N)=O)NC(=O)[C@H](CCCNC(N)=O)NC(=O)[C@H](CCCNC(N)=O)NC(=O)[C@H](Cc2ccc(O)cc2)NC(=O)[C@H]2CCCN2C(=O)[C@H](CCCNC(N)=O)NC1=O", "values": [{"measurement": "SI", "setting": "[2]", "result": "> 37"}, {"measurement": "SI", "setting": "[6]", "result": 250}]}
{"compound": "NCCCC[C@@H]1NC(=O)[C@@H](CCCCN)NC(=O)[C@H](CCCNC(N)=O)NC(=O)[C@@H](Cc2ccc(O)cc2)NC(=O)[C@H](NC(=O)[C@@H](NC(=O)[C@H](CCCN=C(N)N)NC(=O)[C@@H](N)CCCNC(N)=O)c2ccc3ccccc3c2)CSSC[C@H](C(=O)N[C@@H](CCCN=C(N)N)C(N)=O)NC(=O)[C@H](CCCNC(N)=O)NC(=O)[C@H](CCCN=C(N)N)NC(=O)[C@H](Cc2ccc(O)cc2)NC(=O)[C@H]2CCCN2C1=O", "values": [{"measurement": "SI", "setting": "[2]", "result": "> 15"}, {"measurement": "SI", "setting": "[6]", "result": 53}]}
{"compound": "NCCCC[C@H]1NC(=O)[C@H](CCCN=C(N)N)NC(=O)[C@@H](Cc2ccc(O)cc2)NC(=O)[C@H](NC(=O)[C@@H](NC(=O)[C@H](CCCN=C(N)N)NC(=O)[C@@H](N)CCCN=C(N)N)c2ccc3ccccc3c2)CSSC[C@H](C(=O)N[C@@H](CCCN=C(N)N)C(N)=O)NC(=O)[C@H](CCCNC(N)=O)NC(=O)[C@H](CCCN=C(N)N)NC(=O)[C@H](Cc2ccc(O)cc2)NC(=O)[C@H]2CCCN2C(=O)[C@H](CCCNC(N)=O)NC1=O", "values": [{"measurement": "SI", "setting": "[2]", "result": "> 22"}, {"measurement": "SI", "setting": "[6]", "result": 21}]}
{"compound": "NCCCC[C@@H]1NC(=O)[C@@H](CCCCN)NC(=O)[C@H](CCCNC(N)=O)NC(=O)[C@@H](Cc2ccc(O)cc2)NC(=O)[C@H](NC(=O)[C@@H](NC(=O)[C@H](CCCN=C(N)N)NC(=O)[C@@H](N)CCCN=C(N)N)c2ccc3ccccc3c2)CSSC[C@H](C(=O)N[C@@H](CCCN=C(N)N)C(=O)O)NC(=O)[C@H](CCCNC(N)=O)NC(=O)[C@H](CCCNC(N)=O)NC(=O)[C@H](Cc2ccc(O)cc2)NC(=O)[C@H]2CCCN2C1=O", "values": [{"measurement": "SI", "setting": "[2]", "result": "> 11"}, {"measurement": "SI", "setting": "[6]", "result": "> 90"}]}
{"compound": "NCCCC[C@H]1NC(=O)[C@H](CCCNC(N)=O)NC(=O)[C@@H](Cc2ccc(O)cc2)NC(=O)[C@H](NC(=O)[C@@H](NC(=O)[C@H](CCCN=C(N)N)NC(=O)[C@@H](N)CCCN=C(N)N)c2ccc3ccccc3c2)CSSC[C@H](C(=O)N[C@@H](CCCN=C(N)N)C(=O)O)NC(=O)[C@H](CCCNC(N)=O)NC(=O)[C@H](CCCN=C(N)N)NC(=O)[C@H](Cc2ccc(O)cc2)NC(=O)[C@H]2CCCN2C(=O)[C@H](CCCNC(N)=O)NC1=O", "values": [{"measurement": "SI", "setting": "[2]", "result": "> 200"}, {"measurement": "SI", "setting": "[6]", "result": "> 1600"}]}
{"compound": "NCCCC[C@H]1NC(=O)[C@H](CCCN=C(N)N)NC(=O)[C@@H](Cc2ccc(O)cc2)NC(=O)[C@H](NC(=O)[C@@H](NC(=O)[C@H](CCCN=C(N)N)NC(=O)[C@@H](N)CCCN=C(N)N)c2ccc3ccccc3c2)CSSC[C@H](C(=O)N[C@@H](CCCN=C(N)N)C(=O)O)NC(=O)[C@H](CCCNC(N)=O)NC(=O)[C@H](CCCNC(N)=O)NC(=O)[C@H](Cc2ccc(O)cc2)NC(=O)[C@H]2CCCN2C(=O)[C@H](CCCNC(N)=O)NC1=O", "values": [{"measurement": "SI", "setting": "[2]", "result": "> 13"}, {"measurement": "SI", "setting": "[6]", "result": "> 100"}]}
{"compound": "NCCCC[C@@H]1NC(=O)[C@@H](CCCCN)NC(=O)[C@H](CCCN=C(N)N)NC(=O)[C@@H](Cc2ccc(O)cc2)NC(=O)[C@H](NC(=O)[C@@H](NC(=O)[C@H](CCCN=C(N)N)NC(=O)[C@@H](N)CCCNC(N)=O)c2ccc3ccccc3c2)CSSC[C@H](C(=O)N[C@@H](CCCN=C(N)N)C(N)=O)NC(=O)[C@H](CCCNC(N)=O)NC(=O)[C@H](CCCNC(N)=O)NC(=O)[C@H](Cc2ccc(O)cc2)NC(=O)[C@H]2CCCN2C1=O", "values": [{"measurement": "SI", "setting": "[2]", "result": "> 2.5"}, {"measurement": "SI", "setting": "[6]", "result": 12}]}
{"compound": "NCCCC[C@@H]1NC(=O)[C@H](CCCN=C(N)N)NC(=O)[C@H](Cc2ccc(O)cc2)NC(=O)[C@@H](NC(=O)[C@@H](NC(=O)[C@H](CCCN=C(N)N)NC(=O)[C@@H](N)CCCN=C(N)N)c2ccc3ccccc3c2)CSSC[C@@H](C(=O)N[C@@H](CCCN=C(N)N)C(=O)O)NC(=O)[C@H](CCCNC(N)=O)NC(=O)[C@H](CCCN=C(N)N)NC(=O)[C@H](Cc2ccc(O)cc2)NC(=O)[C@@H]2CCCN2C(=O)[C@@H](CCCCN)NC1=O", "values": [{"measurement": "CC50", "setting": "MT4 [7]", "result": "> 1", "unit": "µM"}, {"measurement": "CC50", "setting": "PBMC (Homo sapiens)", "result": 59, "unit": "µM"}]}
{"compound": "NCCCC[C@@H]1NC(=O)[C@@H](CCCCN)NC(=O)[C@H](CCCNC(N)=O)NC(=O)[C@@H](Cc2ccc(O)cc2)NC(=O)[C@H](NC(=O)[C@@H](NC(=O)[C@H](CCCN=C(N)N)NC(=O)[C@@H](N)CCCN=C(N)N)c2ccc3ccccc3c2)CSSC[C@H](C(=O)N[C@@H](CCCN=C(N)N)C(N)=O)NC(=O)[C@H](CCCNC(N)=O)NC(=O)[C@H](CCCN=C(N)N)NC(=O)[C@H](Cc2ccc(O)cc2)NC(=O)[C@H]2CCCN2C1=O", "values": [{"measurement": "SI", "setting": "[2]", "result": "> 170"}, {"measurement": "SI", "setting": "[6]", "result": 680}]}
{"compound": "NCCCC[C@H]1NC(=O)[C@H](CCCN=C(N)N)NC(=O)[C@@H](Cc2ccc(O)cc2)NC(=O)[C@H](NC(=O)[C@@H](NC(=O)[C@H](CCCN=C(N)N)NC(=O)[C@@H](N)CCCNC(N)=O)c2ccc3ccccc3c2)CSSC[C@H](C(=O)N[C@@H](CCCN=C(N)N)C(=O)O)NC(=O)[C@H](CCCNC(N)=O)NC(=O)[C@H](CCCN=C(N)N)NC(=O)[C@H](Cc2ccc(O)cc2)NC(=O)[C@H]2CCCN2C(=O)[C@H](CCCNC(N)=O)NC1=O", "values": [{"measurement": "SI", "setting": "[2]", "result": "> 2.8"}, {"measurement": "SI", "setting": "[6]", "result": "> 22"}]}
{"compound": "NCCCC[C@@H]1NC(=O)[C@@H](CCCCN)NC(=O)[C@H](CCCNC(N)=O)NC(=O)[C@@H](Cc2ccc(O)cc2)NC(=O)[C@H](NC(=O)[C@@H](NC(=O)[C@H](CCCN=C(N)N)NC(=O)[C@@H](N)CCCNC(N)=O)c2ccc3ccccc3c2)CSSC[C@H](C(=O)N[C@@H](CCCN=C(N)N)C(=O)O)NC(=O)[C@H](CCCNC(N)=O)NC(=O)[C@H](CCCN=C(N)N)NC(=O)[C@H](Cc2ccc(O)cc2)NC(=O)[C@H]2CCCN2C1=O", "values": [{"measurement": "SI", "setting": "[2]", "result": "> 2.7"}, {"measurement": "SI", "setting": "[6]", "result": 22}]}
{"compound": "NCCCC[C@H]1NC(=O)[C@H](CCCN=C(N)N)NC(=O)[C@@H](Cc2ccc(O)cc2)NC(=O)[C@H](NC(=O)[C@@H](NC(=O)[C@H](CCCN=C(N)N)NC(=O)[C@@H](N)CCCNC(N)=O)c2ccc3ccccc3c2)CSSC[C@H](C(=O)N[C@@H](CCCN=C(N)N)C(N)=O)NC(=O)[C@H](CCCNC(N)=O)NC(=O)[C@H](CCCN=C(N)N)NC(=O)[C@H](Cc2ccc(O)cc2)NC(=O)[C@H]2CCCN2C(=O)[C@H](CCCNC(N)=O)NC1=O", "values": [{"measurement": "SI", "setting": "[2]", "result": "> 83"}, {"measurement": "SI", "setting": "[6]", "result": 420}]}
{"compound": "NCCCC[C@@H]1NC(=O)[C@@H](CCCCN)NC(=O)[C@H](CCCNC(N)=O)NC(=O)[C@@H](Cc2ccc(O)cc2)NC(=O)[C@H](NC(=O)[C@@H](NC(=O)[C@H](CCCN=C(N)N)NC(=O)[C@@H](N)CCCN=C(N)N)c2ccc3ccccc3c2)CSSC[C@H](C(=O)N[C@@H](CCCN=C(N)N)C(=O)O)NC(=O)[C@H](CCCNC(N)=O)NC(=O)[C@H](CCCN=C(N)N)NC(=O)[C@H](Cc2ccc(O)cc2)NC(=O)[C@H]2CCCN2C1=O", "values": [{"measurement": "SI", "setting": "[2]", "result": "> 29"}, {"measurement": "SI", "setting": "[6]", "result": 180}]}
